Experimental data reported in patent US6949354B2, “Methods for screening compounds active on neurons” (Trophos, priority 1999, dated 2005).

How the values were obtained:
[1] = test system: motor neurons; assay: Induction of motor neuron cell death by glutamate toxicity (domoic acid); assay type: cell-based, rat; details: domoic acid at 10^-5 M, after 24 hours
Description: Domoic acid at 10^−5M leads to loss of more than 50% of motor neurons after 24 hours (see is example), with even more dramatic effects after longer incubations.
(§1) Rat motor neurons were isolated and purified as described in example 1 and cultured for 3 days in Neurobasal medium without neurotrophic factors (i.e. trophic factor withdrawal) in 4-well plates in the presence or absence of the test molecule. The neurotrophic factor BDNF is used as a positive control for all experiments. […] Motor neurons were grown for 3 days in vitro, then domoic acid at various concentrations was added and the number of surviving motor neurons was counted after 26 hours.

[2] = test system: Rat motor neurons; assay: Motor neuron survival on trophic factor withdrawal; assay type: cell-based; details: cultured 3 days in Neurobasal medium without neurotrophic factors, 4-well plates; FIG. 1
Description: Spinal cords are dissected from day E14.5 sprague Dawley rat embryos (Camu et al., (1993) In: “Immunoselection Strategies for Neural Cell Culture”, Neuroprotocols: A companion to Methods in Neurosciences 2, 191-199). The dorsal part of the spinal cord is cut away, and the meninges removed. Each cord is cut into pieces using a scalpel and placed into 1 ml modified F10 medium (Ca2+, Mg2+-free, no glutamine or phenol red), with 0.025% trypsin, at 37° C. for 10 minutes. The fragments are transferred to 1 ml L15 containing 0.4% BSA and 0.1 mg/ml Dnase, and triturated using a blue (1 ml) tip. Cells are then spun through a BSA (4% w/v) cushion for 5 minutes at 480 g. The small cells are removed using a metrizamide (Serva) density gradient: 6.5% (w/v) metrizamide is placed under the cell suspension and centrifuged for 15 minutes at 860 g. The large motor neurons stay at the interface between the medium and the metrizamide, while the small cells (including non-neuronal cells) are pelleted. […]
as §1, with “molecule.” for “molecule. The neurotrophic factor BDNF is used as a positive control for all experiments.”, “hours. […]” for “hours.”

[3] = test system: isolated neurons; assay: Low-density isolated neuron cultures (384-well plate) under growth factor privation, individual cell count; assay type: cell-based; details: growth factor privation to induce apoptosis, exclusion threshold below 300 μm^2, untreated well 18 neurons, FIG. 3A
Source text: FIG. 3 represents two 9 mm^2-wells of a microtitration plate (384 wells) containing low-density cultures of isolated neurons according to this invention. The cultures were subjected to growth factor privation to induce apoptosis, and treated or not with BDNF. […] The exclusion threshold is below 300 μm^2.

Molecule | survival of motor neurons on trophic factor withdrawal [2] | further results
C/C(=C/C=C/[C@@H](C)C(=O)O)[C@H]1CN[C@H](C(=O)O)[C@H]1CC(=O)O [Domoic acid] | – | loss of motor neurons [1]: more than 50%
CCCC(CCC)C(=O)[O-].[Na+] [sodium valproate] | enhances survival of motor neurons | –
(4-carboxyphenyloxyamino) butanoic acid | no effect on motor neuron survival | –
BDNF: neurotrophic factor used as a positive control (protein, UniProt P23560 19-247, looked up) Neurotrophic factor BDNF …: APMKEANIRGQGGLAYPGVRTHGTLESVNGPKAGSRGLTSLADTFEHVIEELLDEDQKVRPNEENNKDADLYTSRVMLSSQVPLEPPLLFLLEEYKNYLDAANMSMRVRRHSDPARRGELSVCDSISEWVTAADKKTAVDMSGGTVTVLEKVPVSKGQLKQYFYETKCNPMGYTKEGCRGIDKRHWNSQCRTTQSYVRALTMDSKKRIGWRFIRIDTSCVCTLTIKRGR | – | neurons present per 9 mm^2 well [3]: 73 neurons
